Laboratory results from ChEMBL document CHEMBL1201862, “PubChem BioAssay data set” (2004).
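96-well plates; 48 h exposure; 5 concentrations. Endpoints by linear interpolation between flanking doses. Not reached: highest tested concentration assigned. The concentration for 50% growth inhibition is given as GI50.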 Activity calls are given as the source filed them. Rule as the data show it: active = GI50 up to about 1.1 µM and inactive = higher.

What was measured:
Experiment in all cases: NCI tumour cell line growth inhibition, 48 h
786-0 = test system: 786-0
A498 = test system: A498
CCRF-CEM = test system: CCRF-CEM
HCT-15 = test system: HCT-15
HOP-62 = test system: HOP-62
HOP-92 = test system: HOP-92
K562 = test system: K562
KM12 = test system: KM12
NCI-H226 = test system: NCI-H226
NCI-H23 = test system: NCI-H23
NCI-H460 = test system: NCI-H460
PC-3 = test system: PC-3
RXF 393 = test system: RXF 393
SF-295 = test system: SF-295
SK-MEL-28 = test system: SK-MEL-28
SK-OV-3 = test system: SK-OV-3
SR = test system: SR
TK-10 = test system: TK-10
U-251 = test system: U-251
UACC-62 = test system: UACC-62

SMILES	GI50 (786-0)	GI50 (A498)	GI50 (CCRF-CEM)	GI50 (HCT-15)	GI50 (HOP-62)	GI50 (HOP-92)	GI50 (K562)	GI50 (KM12)	GI50 (NCI-H226)	GI50 (NCI-H23)	GI50 (NCI-H460)	GI50 (PC-3)	GI50 (RXF 393)	GI50 (SF-295)	GI50 (SK-MEL-28)	GI50 (SK-OV-3)	GI50 (SR)	GI50 (TK-10)	GI50 (U-251)	GI50 (UACC-62)
COc1ccc(Oc2nc3cc(C(F)(F)F)ccc3nc2C(C)C)cc1	36 µM (inactive)	20 µM (inactive)	39.6 µM (inactive)	23.8 µM	40.4 µM (inactive)	17.2 µM (inactive)	24.6 µM (inactive)	31.6 µM (inactive)	21 µM (inactive)	21 µM (inactive)	23.2 µM (inactive)	41.6 µM (inactive)	15.8 µM (inactive)	21.2 µM (inactive)	48 µM (inactive)	38.7 µM (inactive)	16.7 µM (inactive)	81.7 µM (inactive)	23.1 µM (inactive)	28.2 µM (inactive)
Fc1ccc2c(c1)nc1n2C(c2c(F)cccc2F)SC1 (stereo unspecified)	66.7 µM (inactive)	71.8 µM (inactive)		38.3 µM	66.7 µM (inactive)	26.2 µM (inactive)		18.2 µM (inactive)	> 100 µM (inactive)	34 µM (inactive)	37 µM (inactive)	51.6 µM (inactive)	62.2 µM (inactive)	30 µM (inactive)	> 100 µM (inactive)	59.2 µM (inactive)	18.1 µM (inactive)	46.7 µM (inactive)	57 µM (inactive)	45.5 µM (inactive)
C=C1c2nc3ccccc3n2C=C(c2ccccc2)N1c1ccc(C)cc1	45.3 µM (inactive)	52.7 µM (inactive)	55.6 µM (inactive)	35.4 µM		41.4 µM (inactive)	31.5 µM (inactive)	22.7 µM (inactive)	68.7 µM (inactive)	58.6 µM (inactive)	56.6 µM (inactive)	50.4 µM (inactive)	59.6 µM (inactive)	> 100 µM (inactive)		> 100 µM (inactive)	10.3 µM (inactive)	79.3 µM (inactive)	88.1 µM (inactive)	64.4 µM (inactive)
NS(=O)(=O)c1nnc(NS(=O)(=O)c2ccc([N+](=O)[O-])cc2)s1	37.1 µM (inactive)	> 100 µM (inactive)		> 100 µM	> 100 µM (inactive)	> 100 µM (inactive)	33.6 µM (inactive)	> 100 µM (inactive)	> 100 µM (inactive)	> 100 µM (inactive)	> 100 µM (inactive)	> 100 µM (inactive)	> 100 µM (inactive)	> 100 µM (inactive)	> 100 µM (inactive)	> 100 µM (inactive)	32.7 µM (inactive)	> 100 µM (inactive)	> 100 µM (inactive)	> 100 µM (inactive)
CCOC(=O)/C(C#N)=C/N(CC)/N=C/c1ccccc1	86.9 µM (inactive)	> 100 µM (inactive)	> 100 µM (inactive)	> 100 µM		> 100 µM (inactive)	> 100 µM (inactive)	> 100 µM (inactive)	> 100 µM (inactive)	> 100 µM (inactive)	> 100 µM (inactive)	> 100 µM (inactive)	97.3 µM (inactive)	69.8 µM (inactive)	> 100 µM (inactive)	> 100 µM (inactive)	> 100 µM (inactive)	> 100 µM (inactive)	> 100 µM (inactive)	> 100 µM (inactive)
CCOC1CC(C)N(C(=O)c2ccccc2)O1 (stereo unspecified)	> 100 µM (inactive)	> 100 µM (inactive)	> 100 µM (inactive)		> 100 µM (inactive)	31.7 µM (inactive)	> 100 µM (inactive)	> 100 µM (inactive)	> 100 µM (inactive)	> 100 µM (inactive)	> 100 µM (inactive)	80.2 µM (inactive)	> 100 µM (inactive)	> 100 µM (inactive)	> 100 µM (inactive)	> 100 µM (inactive)	> 100 µM (inactive)	> 100 µM (inactive)	> 100 µM (inactive)	> 100 µM (inactive)
O=C(NCCN1CCCCC1)c1ccc(I)cc1	> 100 µM (inactive)	24.8 µM (inactive)	> 100 µM (inactive)	> 100 µM	> 100 µM (inactive)	96.4 µM (inactive)	> 100 µM (inactive)	> 100 µM (inactive)	> 100 µM (inactive)	> 100 µM (inactive)	> 100 µM (inactive)	> 100 µM (inactive)	42.4 µM (inactive)	> 100 µM (inactive)	> 100 µM (inactive)	> 100 µM (inactive)	> 100 µM (inactive)	> 100 µM (inactive)	> 100 µM (inactive)	
Cc1ccc2nc3[nH]nc(N)c3nc2c1	> 100 µM (inactive)	85.3 µM (inactive)	> 100 µM (inactive)	91 µM	> 100 µM (inactive)	87.1 µM (inactive)		54.6 µM (inactive)	45.3 µM (inactive)	> 100 µM (inactive)	> 100 µM (inactive)	93.3 µM (inactive)	60 µM (inactive)	> 100 µM (inactive)	> 100 µM (inactive)	> 100 µM (inactive)	> 100 µM (inactive)	28 µM (inactive)	> 100 µM (inactive)	44.2 µM (inactive)
COc1cc(S(=O)(=O)Nc2ccc(-c3csc(N4C(=O)C(C)SC4c4cccs4)n3)cc2)ccc1Cl (stereo unspecified)	34.6 µM (inactive)	> 100 µM (inactive)	8.28 µM (inactive)	37 µM	0.558 µM (active)	20.1 µM (inactive)	28.4 µM (inactive)	0.931 µM (active)	6.28 µM (inactive)	39.8 µM (inactive)		15.7 µM (inactive)	11.1 µM (inactive)	> 100 µM (inactive)	23.8 µM (inactive)	0.481 µM (active)	33.8 µM (inactive)			89.3 µM (inactive)
CC(=O)Nc1ccc(/N=C2\C(c3ccccc3)=C(SC3=C(c4ccccc4)/C(=N\c4ccc(NC(C)=O)cc4)c4ccccc43)c3ccccc32)cc1	37.3 µM (inactive)	20.6 µM (inactive)	24.7 µM (inactive)	44.5 µM	29.7 µM (inactive)	27 µM (inactive)	32.6 µM (inactive)	27 µM (inactive)	53.6 µM (inactive)	31.3 µM (inactive)	26.7 µM (inactive)	31.1 µM (inactive)	21.6 µM (inactive)	31 µM (inactive)	32.7 µM (inactive)	35.8 µM (inactive)	23.8 µM (inactive)	69.7 µM (inactive)	49.8 µM (inactive)	
COc1ccc(OC)c([N+](=O)[O-])c1-c1nc2sc(Cl)cn2c1/C=N/N=C(N)N	42.9 µM (inactive)	14.1 µM (inactive)	30.9 µM (inactive)	41.2 µM	55.8 µM (inactive)	10.1 µM (inactive)	7.53 µM (inactive)	15.4 µM (inactive)	18.2 µM (inactive)	26.4 µM (inactive)	20.7 µM (inactive)	13.8 µM (inactive)	20.1 µM (inactive)	24.9 µM (inactive)	13.9 µM (inactive)		14.2 µM (inactive)	25.2 µM (inactive)	24.8 µM (inactive)	13.3 µM (inactive)
